Data published in patent US20090156621A1, “HCV INHIBITORS” (priority 2004, published 2009).
Structures can show the parent of a compound that is named as a salt.

These compounds were tested on HCV genotype 1b strain Con1 replicon (ET replicon line, Huh7 cells) (assay: HCV ET replicon luciferase assay). Conditions: Hepatitis C virus, Huh-7; ET replicon line (Huh7 cells, HCV genotype 1b Con1 replicon), luciferase read-out, 72 hours; compounds in free or salt form.
Assay type: cell-based
Experimental: Compounds of the current invention are believed useful in the treatment and/or prophylaxis of conditions and diseases associated with HcV infection. Activity mediated through HCV was determined using an ET replicon line.
The Materials used include a Medium comprised of DMEM (1× liquid, high glucose); Invitrogen cat# 11965-092; 100×Penicillin/Streptomycin solution (10,000 Units/mL); Invitrogen cat# 15140-122; 100×Non-essential amino acid solution (10 mM); Invitrogen cat# 11140-050; Fetal bovine serum; JRH Biosciences cat# 12107-500M; Geneticin (50 mg/mL); Invitrogen cat# 10131-035
The Luciferase assay reagents include Steady-Glo Luciferase assay system, cat# E2550 (Promega)
The ET replicon line (see Lohmann et al. (1999), Replication of subgenomic hepatitis C virus RNAs in a hepatoma cell line. Science 285:110-113; Krieger et al. (2001), Enhancement of hepatitis C virus RNA replication by cell culture-adaptive mutations. J. Virol. 75: 4614-4624; and Vrolijk et al. (2003), A replicon-based bioassay for the measurement of interferons in patients with chronic hepatitis C. J. Virol. Meth. 110: 201-209, each herein incorporated by reference with regard to the ET replicon line), includes Huh7 cells stably transfected with HCV genotype 1b strain Con1 replicon. This replicon expresses the firefly luciferase, has the coding region for ubiquitin inserted upstream of the neomycin gene, and carries three cell culture-adaptive mutations that enhance RNA replication cooperatively (E1202G, T1280I, and S2197P). The ET cell line was obtained under license from: ReBLikon GmbH, Nach dem alten Schloss 22, 55239 Gau-Odernheim, Germany.
Cells are maintained at 37° C., 5% CO2, in DMEM with 10% FCS, 1× penicillin/streptomycin, 1× non-essential amino acids, 0.5 mg/mL Geneticin. For passage, cells are washed once with PBS, and incubated at 37° C. with sufficient trypsin (0.05%)/versene to cover the monolayer. Once detached from the flask, cells are mixed with several mLs of DMEM+10% FBS to inactivate the trypsin, then diluted appropriately (usually 1 in 5 or 1 in 10) with sufficient medium to pass to a new flask. For a T225 flask, 40-50 mLs total volume of cells+medium is typically used. To prevent the density dependent drop in replicon RNA, the ET cell line is maintained at sub-confluent (60-80%) levels.
Compounds are diluted in DMSO across the first 10 wells of a Costar V-bottom 96-well plate using a Biomek 2000 Workstation (Beckman-Coulter), with 0.5 log10 dilution intervals. DMSO only is added to the last two columns of the plate. The top concentration of drug in this master plate is typically 2.5 mM. A 1/5 dilution of the compounds is made by adding DMEM+10% FBS with a multichannel pipettor, giving a top concentration of 500 μM. 5 μL of diluted compounds is transferred into black Costar flat bottom 96-well daughter plates using a RapidPlate workstation (Zymark).
Cells are grown to approximately 80% confluency and trypsinised as described above. Cells are counted in a Levy Hemocytometer and diluted to 20,000 cells/ml in DMEM containing 10% FBS, 1× penicillin/streptomycin, 1×NEAAs. (Note: Geneticin is omitted for the assay).
245 μL cell suspension is added to the first 11 columns of the daughter plates prepared as above using a Multidrop dispenser (Titertek). Thus, 5,000 cells are added per well, and the final top concentration of each compound is 10 μM. The twelfth column of each plate is used to generate background readings for the assay. […]

Compared with `Brc1ccc2[nH]c3c(c2c1)CCCC3Nc1ccccc1` (centres unmarked) [Example 13, 6-Bromo-N-Phenyl-2,3,4,9-tetrahydro-1H-carbazol-1-amine], `Clc1ccc2[nH]c3c(c2c1)CCCC3Nc1ccccc1` (centres unmarked) [Example 14, 6-Chloro-N-phenyl-2,3,4,9-tetrahydro-1H-carbazol-1-amine] is 2-fold lower in IC50: 0.01 µM for the first, 0.005 µM for the second.

`Clc1ccc2[nH]c3c(c2c1)CCCC3Nc1ncccn1` (centres unmarked) [Example 23, 6-Chloro-N-pyrimidin-2-yl-2,3,4,9-tetrahydro-1H-carbazol-1-amine] and `Brc1ccc2[nH]c3c(c2c1)CCCCC3Nc1ncccn1` (centres unmarked) [Example 38, 2-Bromo-N-pyrimidin-2-yl-5,6,7,8,9,10-hexahydrocyclohepta[b]indol-6-amine] are within 1.5-fold of each other in IC50: 0.052 µM for the first, 0.039 µM for the second.

For `Brc1ccc2[nH]c3c(c2c1)CCCC3Nc1ccccn1` (centres unmarked) [Example 27, 6-Bromo-N-pyridin-2-yl-2,3,4,9-tetrahydro-1H-carbazol-1-amine Hydrochloride], the IC50 was 0.008 µM.
